In patent US10150737B2, “Compounds for controlling arthropods” (priority 2013, dated 2018):

What was measured:
Myzus persicae = Myzus persicae - spray test; type: in vivo; details: Chinese cabbage leaf discs, after 6 days
How it was run: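 Mortality of the green peach aphid, as % killed, was read 6 days after spraying infested Brassica pekinensis leaf discs. Compound formulated in acetone/dimethylformamide and made up with emulsifier-containing (1000 ppm) water.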

Amblyomma hebraeum = assay: Amblyomma hebaraeum test (tick nymphs, immersion); type: in vivo; details: application rate 100 ppm; tick nymphs immersed one minute; after 42 days
How it was run: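 Mortality (%) is read 42 days post-treatment, where 0% means no ticks and 100% all ticks killed. Nymphs were dipped for 1 min into the test dilution (DMSO stock diluted with water) and afterwards stored on filter paper under controlled climate.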

[1] = system: Boophilus microplus Parkhurst strain, SP-resistant; assay: Boophilus microplus - dip test; type: in vivo; details: application rate 100 ppm; dip of engorged adult female ticks; after 7 days
How it was run: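 Compound dissolved in DMSO, diluted with water, and used to fully wet groups of 8-10 engorged female cattle ticks (SP-resistant Parkhurst strain). Fertile egg laying assessed at 7 days, doubtful eggs held ~42 days until hatch; 0% means all eggs fertile.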

Ctenocephalides felis [2] = assay: Ctenocephalides felis - in vitro contact tests with adult cat fleas; type: in vivo; details: application rate 5 μg/cm2 (=500 g/ha); after 48 h; fleas dead or moribund
How it was run: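 Efficacy, as percentage of fleas dead or moribund, was scored at 48 h by knocking fleas to the tube base. Exposure was by contact with a dried acetone film of compound at 5 μg/cm^2 area dose; 5–10 adults per tube, room temperature, ambient humidity.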

Spodoptera frugiperda = Spodoptera frugiperda - spray test; type: in vivo; details: caterpillars on maize leaf discs, after 7 days
How it was run: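 Percent mortality of Spodoptera frugiperda caterpillars scored 7 days after placing them on dried maize leaf discs sprayed at the desired concentration. Spray formulation: compound dissolved in acetone/dimethylformamide, made up with water containing 1000 ppm emulsifier.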

Tetranychus urticae = Tetranychus urticae - spray test, OP-resistant; type: in vivo; details: bean leaf discs, after 6 days
How it was run: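 Mortality (%) read on day 6 after spraying Phaseolus vulgaris leaf discs carrying all mite stages with formulations at the desired concentration. Formulation: active ingredient in acetone plus dimethylformamide, made up with emulsifier-containing water (1000 ppm alkylaryl polyglycol ether).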

Phaedon cochleariae = Phaedon cochleariae - spray test; type: in vivo; details: larvae on Chinese cabbage leaf discs, after 7 days
How it was run: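 Mortality of mustard beetle larvae was scored as % at day 7 on Brassica pekinensis leaf discs. Discs had been treated by spraying at the desired concentration, using an acetone/dimethylformamide solution diluted in water with 1000 ppm alkylaryl polyglycol ether, and dried before larvae were added.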

Musca domestica = Musca domestica test; type: in vivo; details: application rate 100 ppm; adult houseflies; after 2 days
How it was run: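 Water-diluted DMSO stock of compound, mixed onto a sugar-treated sponge, served as the sole exposure route for ten adult houseflies. Kill percentage scored at 2 days.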

Rhipicephalus sanguineus = Rhipicephalus sanguineus - in vitro contact tests with adult brown dog ticks; type: in vivo; details: application rate 5 μg/cm2; after 48 h; ticks dead or moribund
How it was run: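 Efficacy, scored after 48 h, is the % of adult ticks dead or moribund, i.e. unable to climb away on a 45-50° C hotplate within 5 min. Tubes held 5-10 ticks in the dark at room temperature, on an acetone-applied coating of 5 μg/cm^2 (900 ppm solution).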

[3] = logP determination by HPLC on a reversed-phase column (C18); type: physicochemical; details: for log P: HPLC-MS, Table I-T3; for logP: HPLC, C18 reversed phase, acetonitrile/water with formic acid, EEC Directive 79/831 Annex V.A8
Lucilia cuprina = Lucilia cuprina test; type: in vivo; details: application rate 100 ppm; L1 larvae; after 2 days
How it was run: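 Mortality (%) of first-instar blowfly larvae, about 20 per vessel, recorded 2 days after exposure to compound-treated minced horsemeat. Compound dissolved in dimethyl sulphoxide, then water-diluted to the desired concentration.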

Ctenocephalides felis [4] = assay: Ctenocephalides felis - oral test; type: in vivo; details: application rate 100 ppm in citrated cattle blood; after 2 days
How it was run: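 Roughly 20 unfed adult C. felis imbibe compound-dosed citrated cattle blood (DMSO formulation) across parafilm from a cylinder above their gauze chamber; percentage mortality recorded at day 2.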

Boophilus microplus = Boophilus microplus - injection test; type: in vivo; details: application rate 20 μg/animal, injection into engorged adult female ticks, after 7 days; for pest or weed control at 0.02 mg: Rhipicephalus microplus, 168 h, read-out: efficacy (laying of fertile eggs)
How it was run: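 Five engorged adult female cattle ticks each received a 1 μl abdominal injection of compound solution in dimethyl sulphoxide. Fertile egg laying was assessed at 7 days, with doubtful eggs incubated about 42 days until hatch. 0% efficacy means all eggs fertile.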

Meloidogyne incognita = Meloidogyne incognita test; type: in vivo; details: application rate 20 ppm; lettuce; after 14 days
Method: Solvent: 125.0 parts by weight of acetone
To produce an appropriate active ingredient formulation, 1 part by weight of active ingredient is mixed with the stated amount of solvent and the concentrate is diluted with water to the desired concentration.
Vessels are filled with sand, active ingredient solution, an egg/larvae suspension of the southern root-knot nematode (Meloidogyne incognita) and lettuce seeds. The lettuce seeds germinate and the plants develop. The galls develop on the roots.
After 14 days, the nematicidal efficacy in % is determined by the formation of galls. 100% means that no galls were found; 0% means that the number of galls on the treated plants corresponds to the untreated control.

[5] = system: Aedes aegypti strain MONHEIM; assay: Aedes test (AEDSAE surface treatment); type: in vivo; details: read-out: efficacy (mortality)
Method: (§1) Solvent: acetone+2000 ppm rapeseed oil methyl ester (RME)
(§2) To produce an appropriate active ingredient formulation, the active ingredient is dissolved in the solvent (2 mg/ml). The active ingredient formulation is pipetted onto a glazed tile and, after it has dried off, adult mosquitoes of the species Aedes aegypti strain MONHEIM are placed onto the treated tile. The exposure time is 30 minutes.
(§3) 24 hours after contact with the treated surface, mortality in % is determined. 100% means that all mosquitoes have been killed; 0% means that none of the mosquitoes have been killed.

[6] = system: Anopheles gamhiae strain RSPH (homozygot kdr); assay: Anopheles test (ANPHGB surface treatment); type: in vivo; details: read-out: efficacy (mortality)
Method: as §1
as §2, with “Anopheles gamhiae” for “Aedes aegypti”, “RSPH (homozygot kdr)” for “MONHEIM”
as §3

[7] = system: Anopheles funestus strain FUMOZ-R; assay: Anopheles test (ANPHFU surface treatment); type: in vivo; details: read-out: efficacy (mortality)
Method: as §1
as §2, with “Anopheles funestus” for “Aedes aegypti”, “FUMOZ-R (Hunt et al., Med Vet Entomol. 2005 September; 19 (3):271-5)” for “MONHEIM”
as §3

| SMILES | efficacy (Myzus persicae; application rate 100 g/ha) | efficacy (kill) (Amblyomma hebraeum) | efficacy (laying of fertile eggs) [1] | efficacy (Ctenocephalides felis [2]) | efficacy (Spodoptera frugiperda; application rate 100 g/ha) | efficacy (Tetranychus urticae; application rate 100 g/ha) | efficacy (Phaedon cochleariae; application rate 100 g/ha) | efficacy (kill) (Musca domestica) | efficacy (Rhipicephalus sanguineus) | log P ([3]; reversed-phase column (C18)) | efficacy (kill) (Lucilia cuprina) | efficacy (kill) (Ctenocephalides felis [4]) | efficacy (laying of fertile eggs) (Boophilus microplus) | efficacy (Spodoptera frugiperda; application rate 500 g/ha) | efficacy (Tetranychus urticae; application rate 500 g/ha) | efficacy (Phaedon cochleariae; application rate 500 g/ha) | nematicidal efficacy (formation of galls) (Meloidogyne incognita) | mortality at 20 mg/m2 [5] | mortality at 100 mg/m2 [5] | logP [3] | also measured |
| --- | --- | --- | --- | --- | --- | --- | --- | --- | --- | --- | --- | --- | --- | --- | --- | --- | --- | --- | --- | --- | --- |
| N#CC1(NC(=O)c2cc(-c3cnn(-c4c(Cl)cc(C(F)(C(F)(F)F)C(F)(F)F)cc4OC(F)(F)F)c3)ccc2Cl)CC1 [I-T3-163] | 90% | 100% | 100% | 100% | 100% | 100% | 100% | 100% | 100% | 4.5 | 100% | 100% | 100% | – | – | – | – | – | – | – | logP^a) ([3]; HPLC-MS method a), reversed-phase column (C18)): 4.5 |
| O=C(NC1CC1)c1cc(-c2cnn(-c3c(Cl)cc(C(F)(F)F)c(F)c3Cl)c2)ccc1Cl [I-T3-184] | 100% | – | – | – | – | – | – | – | – | 3.6 | – | – | – | 100% | 100% | 100% | 90% | – | – | – | – |
| N#CC1(NC(=O)c2cc(-c3cnn(-c4c(Cl)cc(C(F)(F)F)c(F)c4Cl)c3)ccc2Cl)CC1 [I-T3-185] | – | – | – | – | – | – | – | – | – | 3.6 | – | – | – | 100% | 100% | 100% | 90% | – | – | – | efficacy (Myzus persicae; application rate 500 g/ha): 100% |
| Cc1cc(C(F)(C(F)(F)F)C(F)(F)F)cc(C)c1-c1cc(-c2ccc(Cl)c(C(=O)NC3CC3)c2)on1 [I-T22-1, 2-chloro-N-cyclopropyl-5-[3-[2,6-dimethyl-4-[1,2,2,2-tetrafluoro-1-(trifluoromethyl)ethyl]phenyl]isoxazol-5-yl]benzamide] | 100% | 100% | 100% | 100% | – | – | – | 100% | 100% | – | – | – | – | – | – | – | – | 90 to 100% | 90 to 100% | 4.8 | mortality at 100 mg/m2 [6]: 90 to 100%; mortality at 20 mg/m2 [7]: 90 to 100%; mortality at 100 mg/m2 [7]: 90 to 100%; pest or weed control at 0.02 mg (Boophilus microplus): 100% |
| Cc1cc(C(F)(C(F)(F)F)C(F)(F)F)cc(C)c1-c1cc(-c2ccc(Cl)c(C(=O)NC3(C#N)CC3)c2)on1 [I-T22-2] | 100% | 100% | 100% | 100% | 100% | 90% | 100% | 100% | 100% | – | 100% | 100% | 100% | – | – | – | – | – | – | 4.6 | – |
| O=C(NC1CC1)c1cc(-c2cc(-c3c(Cl)cc(C(F)(C(F)(F)F)C(F)(F)F)cc3Cl)on2)ccc1Cl [I-T23-1, 2-chloro-N-cyclopropyl-5-[5-[2,6-dichloro-4-[1,2,2,2-tetrafluoro-1-(trifluoromethyl)ethyl]phenyl]isoxazol-3-yl]benzamide] | – | 100% | 100% | 100% | – | – | – | 100% | – | – | – | – | – | – | – | – | – | 90 to 100% | 90 to 100% | 5.0 | mortality at 20 mg/m2 [7]: 90 to 100%; pest or weed control at 0.02 mg (Boophilus microplus): 100% |
